The values below are quoted from earlier work in patent EP0315648B1 (THE UPJOHN COMPANY, priority 1986, dated 1988).

The conditions of the data set: Hildebrand solubility coefficient of the solvent (scale of Vaughn).

Regarding `CCCCCCCC/C=C\CCCCCCCCO` [oleyl alcohol], the HSC is given as 9.8.
Turning to `CC(O)CO` (centres unmarked) [propylene glycol], the HSC is reported as 14.
